Reference: patent US20090215713A1, “Use of atp for the manufacture of a medicament for the prevention and treatment of oxidative stress and related conditions” (priority 2004, published 2009)

Legend:
IL-10 = assay: LPS+PHA-induced IL-10 secretion in whole blood under oxidative stress (H2O2); type: cell-based, human
Procedure: FIG. 11 Effect of ATP on LPS+PHA-induced IL-10 secretion in whole blood from healthy subjects under conditions of oxidative stress. Two concentrations of H2O2 (1 and 10 mM) were added to whole blood, together with the indicated concentrations of ATP. Then, blood was exposed to 10 μg/ml LPS and 1 μg/ml PHA, and incubated for 24 h. The IL-10 released into the supernatants was analyzed using the ELISA method. […] Data are expressed as the mean values; error bars represent SEM.
Whole blood of healthy subjects was collected as described for Experiment 2, and pre-incubated with 1 or 10 mM H2O2 at 5% CO2 and 37° C. for 15 min. Then, ATP was added to the blood at final concentrations of 1-300 μM for the 30 min incubation step, and then incubated as in Experiment 2 with LPS/PHA for 24 hours.

[1] = ATP infusions in patients with chronic fatigue syndrome (double-blind); type: in vivo, human
Procedure: (§1) Patients with different diseases received infusions of 10-75 μg/kg·min over 8-24 h, at intervals of 1-4 weeks in different randomized clinical trials. In all cases, the first. infusion was given under clinical supervision, subsequent infusions were given in the setting of private homes. Preliminary results in small numbers of patients with persistent rheumatoid arthritis, chronic fatigue syndrome, and cancer in the pre-terminal stage, and lung cancer during curative radiotherapy are given below.
In a double-blind design, 8 out of 9 patients with chronic fatigue syndrome who had been treated with ATP (8 infusions of 24 h), spontaneously reported the following unexpected beneficial effects of ATP infusion: • less pain on the day after the infusion • feeling better during the 8-week infusion period than before or afterwards • more physical energy on the day after the infusion • felt better during the complete infusion period: less pain, better performance status, happier, mentally stronger, less tired, sleeping better • fewer ulcers during the infusion period • feeling less weak/feeble on the day after the infusion, feeling muscles “in a positive sense” In 5 out of 9 patients, these effects were already noted on the day after the first ATP infusion. […] In the placebo group, not even one out of 9 patients spontaneously reported any of such improvements.

[2] = ATP infusions in pre-terminal cancer patients; type: in vivo, human
Procedure: as §1
This study was performed in patients of different tumour types with a life expectation of between 8 and 12 weeks. Patients received a maximum of 8 ATP infusions (8 h) at an infusion rate of max. 50 μg/kg·min. […] These subjective improvements were supported by objective outcome assessment using validated questionnaires for self-reliance (Groningen Activity Restriction Scale, GARS), fatigue (Short Fatigue Questionnaire, Smets et al.), and appetite (visual analogue scale, VAS). Below, some of the major effects in these five patients are summarized. Patient 1 (non-small-cell lung cancer): Despite a very low ATP dose (=20-30 μg/kg·min), this patient spontaneously reported that they felt more energetic. Before the study, the patient was not able to independently dress, undress, get in/out of bed, to get out of a chair, or to wash their hands, face or body. After 8 weeks of ATP, the patient was able to perform all of these activities independently. Over 8 weeks, their appetite improved markedly: EORTC-QLQ-30 (4-point scale): improvement from 4 to 1, and on VAS [0-100 mm], from 13 to 63 before lunch, and from 17 to 70 before dinner. The patient's treating pulmonologist concluded a “miraculous improvement” over the 8-week treatment period. On request of the patient, ATP infusions were continued. Patient 2 (primary liver carcinoma): This patient, who suffered from marked anorexia, spontaneously reported that they were “eating again like a building worker” after 8 weeks of ATP treatment. […] Furthermore, the patient felt less tired within 2 weeks of starting ATP infusions. Patient 3 (melanoma): This patient reported marked improvement in appetite. This was confirmed by outcome assessment (VAS), in addition, marked amelioration in fatigue and self reliance was found. After 8 infusion, the patient pledged to continue the ATP infusions. […] After 5 infusions, the patient decided that they felt so much better that they wanted to continue the infusions after the study. Patient 5 (pancreas cancer; study still ongoing): After 4 infusions, the patient noted to feel much more energetic.

[3] = Randomized ATP infusions in non-small-cell lung cancer patients, stage IIIB and IV; type: in vivo, human
Procedure: Patients with non-small-cell lung cancer, stage IIIB and IV, in the palliative treatment stage, were randomized to receive either ATP infusions (total of 10 infusions over 24 weeks) or no treatment. Outcome assessment (quality of life, blood values) was performed at regular intervals.

[4] = Side effects of intravenous ATP infusions; type: in vivo, human; conditions: over 60 home infusions in cancer patients
Procedure: For reasons of patients' safety, there has been no attempt to administer ATP outside a strict medical setting to date. In particular, WO 03/061568 (Rapaport) discloses the administration of ATP over a period of typically 8-10 hours in an outpatient setting within the hospital. […] Thus, both our data and US 2003/0109486 contradict the disclosure of WO 03/061568.
In order to determine the tolerance for ATP as well as the maximally tolerated dose of ATP, the first ATP infusion is preferably administered under medical supervision, usually in an in- or outpatient setting. Subsequent infusions can either be started at the hospital day care centre, at private homes, nursing homes, etc. according to a standardized protocol.

[5] = system: mice bearing colon tumour; conditions: daily intraperitoneal injections of 25 mmol/L for 10 days; cited from earlier work
[6] = cited from earlier work
[7] = cited from earlier work; remark: listed apart in the source

Structure (SMILES): Nc1ncnc2c1ncn2[C@@H]1O[C@H](COP(=O)(O)OP(=O)(O)OP(=O)(O)O)[C@@H](O)[C@H]1O [ATP, Adenosine 5′-triphosphate]
- increase in IL-10 release (IL-10; 300 μM ATP, 1 or 10 mM H2O2, LPS-PHA): 50-60%
- effect on LPS+PHA-induced IL-10 release (IL-10; 1 or 10 mM H2O2): significantly increased
- patients spontaneously reporting beneficial effects ([1]; 8 infusions of 24 h): 8 out of 9
- patients noting these effects on the day after the first ATP infusion ([1]; human, in vivo): 5 out of 9
- appetite VAS [0-100 mm] before dinner ([2]; Patient 1, before): 17 mm
- appetite VAS [0-100 mm] before lunch ([2]; Patient 1, before): 13 mm
- appetite, EORTC-QLQ-30 (4-point scale) ([2]; Patient 1, before): 4
- appetite VAS [0-100 mm] before dinner ([2]; Patient 1, over 8 weeks of ATP): 70 mm
- appetite VAS [0-100 mm] before lunch ([2]; Patient 1, over 8 weeks of ATP): 63 mm
- appetite, EORTC-QLQ-30 (4-point scale) ([2]; Patient 1, over 8 weeks of ATP): 1
- appetite VAS (0-100) ([2]; Patient 2, before): 20
- appetite VAS (0-100) ([2]; Patient 2, within 4 weeks): 95
- fatigue, 7-point scale (mean of four items of SFQ) ([2]; Patient 4, after 4 weeks of ATP infusions): 5.8
- fatigue, 7-point scale (mean of four items of SFQ) ([2]; Patient 4, before): 2.8
- patients spontaneously reporting marked improvements ([2]; patients who had completed >4 ATP infusions): 5 out of 19
- plasma lactate dehydrogenase concentration ([3]; 24-week study period): remained stable
- plasma triglyceride concentration ([3]; 24-week study period): remained stable
- decreased sexual interest, compared to the control group ([3]; human, in vivo): normalization
- dizziness, compared to the control group ([3]; human, in vivo): reduction
- dry mouth, compared to the control group ([3]; human, in vivo): improvement
- serious side effects grade 3-4 on the WHO Common Toxicity Criteria scale [4]: no serious side effects
- effect on host weight loss [5]: significant inhibition
- body weight ([6]; phase I/II, 2 to 3 intravenous courses of 96 hours): stabilisation
- average weight gain ([6]; phase II, after 4 ATP courses): 1.3 kg
- effect on plasma levels of pro- or anti-inflammatory cytokines ([7]; Swennen et al. 2004): neither an effect
- loss of weight and muscle mass compared to a control group ([7]; regular infusions): inhibited
